Assay results: patent US11053204B2, “Pyrimidinyloxy benzene derivatives as herbicides” (FMC Corporation, priority 2015, dated 2021)

Assays:
Type in all cases: in vivo
rice (Oryza sativa) = assay: Test B flooded paddy test, plant response rating; conditions: 250 g ai/ha; Flood; scale of 0 to 100 where 0 is no effect and 100 is complete control; 13 to 15 days
Outline: (§1)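 In-water treatment: compound dosed into 3 cm flood over soil, water level unchanged throughout. Controls run alongside; visual assessment at day 13–15.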

[1] = test system: barnyardgrass (Echinochloa crus-galli); assay: Test B flooded paddy test, plant response rating; conditions: 250 g ai/ha; Flood; scale of 0 to 100 where 0 is no effect and 100 is complete control; 13 to 15 days
Outline: as §1

[2] = test system: ducksalad (Heteranthera limosa); assay: Test B flooded paddy test, plant response rating; conditions: 250 g ai/ha; Flood; scale of 0 to 100 where 0 is no effect and 100 is complete control; 13 to 15 days
Outline: as §1

[3] = test system: sedge, umbrella (small-flower umbrella sedge, Cyperus difformis); assay: Test B flooded paddy test, plant response rating; conditions: 250 g ai/ha; Flood; scale of 0 to 100 where 0 is no effect and 100 is complete control; 13 to 15 days
Outline: as §1

kochia (Kochia scoparia) [4] = assay: Test A postemergence, visual injury rating
Outline: (§2)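 Greenhouse pot test, loam/sand soil. Formulation: non-phytotoxic solvent mix plus surfactant. Pre: directed spray onto soil after sowing. Post: plants at 1–2 leaf, 2–10 cm. Rated visually vs untreated controls at ~10 d, 0 (no effect) to 100 (complete control).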

[5] = test system: wheat (Triticum aestivum); assay: Test A postemergence, visual injury rating
Outline: as §2

[6] = test system: ragweed (common ragweed, Ambrosia elatior); assay: Test A postemergence, visual injury rating
Outline: as §2

[7] = test system: giant foxtail (Setaria faberii); assay: Test A postemergence, visual injury rating
Outline: as §2

[8] = test system: barnyardgrass (Echinochloa crus-galli); assay: Test A postemergence, visual injury rating; conditions: 0 to 100 scale, 0 is no effect, 100 is complete control, approximately 10 days
Outline: as §2

[9] = test system: Italian ryegrass (Lolium multiflorum); assay: Test A postemergence, visual injury rating
Outline: as §2

corn (Zea mays) = assay: Test A postemergence, visual injury rating
Outline: as §2

[10] = test system: galium (catchweed bedstraw, Galium aparine); assay: Test A postemergence, visual injury rating
Outline: as §2

[11] = test system: blackgrass (Alopecurus myosuroides); assay: Test A postemergence, visual injury rating
Outline: as §2

[12] = test system: pigweed (Amaranthus retroflexus); assay: Test A postemergence, visual injury rating
Outline: as §2

kochia (Kochia scoparia) [13] = assay: Test A preemergence, visual injury rating
Outline: as §2

[14] = test system: ragweed (common ragweed, Ambrosia elatior); assay: Test A preemergence, visual injury rating
Outline: as §2

[15] = test system: giant foxtail (Setaria faberii); assay: Test A preemergence, visual injury rating
Outline: as §2

[16] = test system: barnyardgrass (Echinochloa crus-galli); assay: Test A preemergence, visual injury rating
Outline: as §2

[17] = test system: Italian ryegrass (Lolium multiflorum); assay: Test A preemergence, visual injury rating
Outline: as §2

[18] = test system: pigweed (Amaranthus retroflexus); assay: Test A preemergence, visual injury rating
Outline: as §2

[19] = 31 g ai/ha, 0 to 100 scale, 0 is no effect, 100 is complete control, approximately 10 days
[20] = 125 g ai/ha, 0 to 100 scale, 0 is no effect, 100 is complete control, approximately 10 days
[21] = 31 g ai/ha, 0 to 100 scale, 0 no effect, 100 complete control
[22] = 125 g ai/ha, 0 to 100 scale (0 no effect, 100 complete control)
[23] = 31 g ai/ha, 0 to 100 scale (0 no effect, 100 complete control)

| Structure (SMILES) | Plant response rating, Rice (rice (Oryza sativa)) | Plant response rating, Barnyardgrass [1] | Plant response rating, Ducksalad [2] | Plant response rating, Sedge, Umbrella [3] | Kochia plant response rating (kochia (Kochia scoparia) [4]; [20]) | Wheat plant response rating [5, 20] | Ragweed plant response rating [6, 20] | Foxtail, Giant plant response rating [7, 20] | Barnyardgrass plant response rating ([8]; 31 g ai/ha) | Barnyardgrass plant response rating ([8]; 125 g ai/ha) | Ryegrass, Italian plant response rating [9, 20] | Corn plant response rating (corn (Zea mays); [20]) | Galium plant response rating [10, 20] | Blackgrass plant response rating [11, 20] | Pigweed plant response rating [12, 20] | Plant response rating, Kochia (kochia (Kochia scoparia) [13]; [21]) | Plant response rating, Kochia (kochia (Kochia scoparia) [13]; [22]) | Plant response rating, Ragweed [14, 21] | Plant response rating, Ragweed [14, 22] | Plant response rating, Foxtail, Giant [15, 21] | also measured |
| --- | --- | --- | --- | --- | --- | --- | --- | --- | --- | --- | --- | --- | --- | --- | --- | --- | --- | --- | --- | --- | --- |
| FC(F)(F)CCCCCc1c(Cl)cccc1Oc1ncc(Cl)cn1 [Compound 124] | 40 | 45 | 100 | 100 | 80 | 10 | 20 | 70 | 10 | 60 | 20 | 20 | 90 | 60 | 100 | 0 | 10 | 0 | 0 | 60 | Kochia plant response rating (kochia (Kochia scoparia) [4]; [19]): 50; Wheat plant response rating [5, 19]: 10; Ragweed plant response rating [6, 19]: 10; Foxtail, Giant plant response rating [7, 19]: 30; Ryegrass, Italian plant response rating [9, 19]: 0; Corn plant response rating (corn (Zea mays); [19]): 10; Galium plant response rating [10, 19]: 70; Blackgrass plant response rating [11, 19]: 20; Pigweed plant response rating [12, 19]: 70; Plant response rating, Foxtail, Giant [15, 22]: 100; Plant response rating, Barnyardgrass [16, 21]: 10; Plant response rating, Barnyardgrass [16, 22]: 80; Plant response rating, Ryegrass, Italian [17, 21]: 0; Plant response rating, Ryegrass, Italian [17, 22]: 20; Plant response rating, Pigweed [18, 21]: 40; Plant response rating, Pigweed [18, 22]: 100 |
| CN(CCCC(F)(F)F)c1c(C#N)cccc1Oc1ncc(Cl)cn1 [Compound 126] | 0 | 90 | 0 | 0 | 0 | 0 | 0 | 0 | 0 | 0 | 0 | 0 | 0 | 0 | 10 | 0 | 0 | 0 | 0 | 0 | Kochia plant response rating (kochia (Kochia scoparia) [4]; [19]): 0; Wheat plant response rating [5, 19]: 0; Ragweed plant response rating [6, 19]: 0; Foxtail, Giant plant response rating [7, 19]: 0; Ryegrass, Italian plant response rating [9, 19]: 0; Corn plant response rating (corn (Zea mays); [19]): 0; Galium plant response rating [10, 19]: 0; Blackgrass plant response rating [11, 19]: 0; Pigweed plant response rating [12, 19]: 0; Plant response rating, Foxtail, Giant [15, 22]: 0; Plant response rating, Barnyardgrass [16, 21]: 0; Plant response rating, Barnyardgrass [16, 22]: 0; Plant response rating, Ryegrass, Italian [17, 21]: 0; Plant response rating, Ryegrass, Italian [17, 22]: 0; Plant response rating, Pigweed [18, 21]: 0; Plant response rating, Pigweed [18, 22]: 0 |
| CCCCC(C#N)c1ccccc1Oc1ncc(Cl)cn1 (stereo not drawn) [Compound 129] | 40 | 45 | 90 | 80 | 100 | 10 | 0 | 100 | 20 | 100 | 60 | 20 | 90 | 80 | 70 | 30 | 100 | 0 | 0 | 100 | Kochia plant response rating (kochia (Kochia scoparia) [4]; [23]): 40; Wheat plant response rating [5, 23]: 0; Ragweed plant response rating [6, 23]: 0; Foxtail, Giant plant response rating [7, 23]: 20; Ryegrass, Italian plant response rating [9, 23]: 0; Corn plant response rating (corn (Zea mays); [23]): 20; Galium plant response rating [10, 23]: 30; Blackgrass plant response rating [11, 23]: 20; Pigweed plant response rating [12, 23]: 20; Plant response rating, Foxtail, Giant [15, 22]: 100; Plant response rating, Barnyardgrass [16, 21]: 70; Plant response rating, Barnyardgrass [16, 22]: 100; Plant response rating, Ryegrass, Italian [17, 21]: 20; Plant response rating, Ryegrass, Italian [17, 22]: 60; Plant response rating, Pigweed [18, 21]: 90; Plant response rating, Pigweed [18, 22]: 100 |
| N#Cc1cccc(Oc2ncc(Cl)cn2)c1COCC(F)(F)F [Compound 131] | 15 | 15 | 80 | 90 | 90 | 20 | 0 | 20 | 0 | 10 | 20 | 30 | 50 | 0 | 80 | 10 | 100 | 0 | 0 | 0 | Kochia plant response rating (kochia (Kochia scoparia) [4]; [23]): 40; Wheat plant response rating [5, 23]: 0; Ragweed plant response rating [6, 23]: 0; Foxtail, Giant plant response rating [7, 23]: 0; Ryegrass, Italian plant response rating [9, 23]: 0; Corn plant response rating (corn (Zea mays); [23]): 20; Galium plant response rating [10, 23]: 20; Blackgrass plant response rating [11, 23]: 0; Pigweed plant response rating [12, 23]: 50; Plant response rating, Foxtail, Giant [15, 22]: 90; Plant response rating, Barnyardgrass [16, 21]: 0; Plant response rating, Barnyardgrass [16, 22]: 100; Plant response rating, Ryegrass, Italian [17, 21]: 0; Plant response rating, Ryegrass, Italian [17, 22]: 20; Plant response rating, Pigweed [18, 21]: 90; Plant response rating, Pigweed [18, 22]: 100 |
| N#Cc1cccc(Oc2ncc(Cl)cn2)c1COCC(F)(F)C(F)(F)F [Compound 132] | 45 | 45 | 90 | 80 | 70 | 20 | 0 | 50 | 30 | 50 | 0 | 30 | 60 | 30 | 90 | 10 | 60 | 0 | 0 | 40 | Kochia plant response rating (kochia (Kochia scoparia) [4]; [23]): 40; Wheat plant response rating [5, 23]: 0; Ragweed plant response rating [6, 23]: 0; Foxtail, Giant plant response rating [7, 23]: 30; Ryegrass, Italian plant response rating [9, 23]: 0; Corn plant response rating (corn (Zea mays); [23]): 20; Galium plant response rating [10, 23]: 20; Blackgrass plant response rating [11, 23]: 0; Pigweed plant response rating [12, 23]: 60; Plant response rating, Foxtail, Giant [15, 22]: 100; Plant response rating, Barnyardgrass [16, 21]: 30; Plant response rating, Barnyardgrass [16, 22]: 100; Plant response rating, Ryegrass, Italian [17, 21]: 0; Plant response rating, Ryegrass, Italian [17, 22]: 30; Plant response rating, Pigweed [18, 21]: 70; Plant response rating, Pigweed [18, 22]: 100 |
